# Test results published in patent US20220132852A1, “PESTICIDALLY ACTIVE HETEROCYCLIC DERIVATIVES WITH SULFUR CONTAINING SUBSTITUENTS” (SYNGENTA CROP PROTECTION AG, priority 2019, published 2022).
# Like-named read-outs stand apart in the source and are kept apart here.
# Tests used:
# [1] = tested on: Spodoptera littoralis (Egyptian Cotton Leaf Worm); test: Example B6: Activity against Spodoptera littoralis (Egyptian cotton leaf worm); type: in vivo; details: foliar, 72 h, application rate 200 ppm, L1 larvae on sprayed cotton leaf discs, 3 days after infestation, read-out: control (mortality, anti-feeding effect or growth inhibition)
# In short: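 Cotton leaf discs on agar were sprayed with aqueous test solutions prepared from 10'000 ppm DMSO stocks. After drying, each disc was infested with five L1 larvae. Mortality, anti-feeding and growth inhibition were scored against untreated samples 3 days after infestation.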
# [2] = tested on: Myzus persicae (Green Peach Aphid); test: whole plant or invertebrate; type: in vivo; details: foliar, 144 h, application rate 200 ppm, sprayed sunflower leaf discs, mixed ages, 6 days after infestation
# Description: Example B4: Activity Against Myzus persicae (Green Peach Aphid) Feeding/Contact Activity
# Sunflower leaf discs were placed onto agar in a 24-well microtiter plate and sprayed with aqueous test solutions prepared from 10′000 ppm DMSO stock solutions. After drying, the leaf discs were infested with an aphid population of mixed ages. The samples were assessed for mortality 6 days after infestation.
# [3] = tested on: Euschistus heros (Neotropical Brown Stink Bug); test: Example B2: Activity against Euschistus heros (neotropical brown stink bug), sprayed soybean leaves; type: in vivo; details: 120 h, application rate 200 ppm, N2 nymphs on sprayed soybean leaves, 5 days after infestation, read-out: effect in at least one of the two categories (mortality or growth inhibition)
# Description: Example B2: Activity Against Euschistus heros (Neotropical Brown Stink Bug)
# Soybean leaves on agar in 24-well microtiter plates were sprayed with aqueous test solutions prepared from 10′000 ppm DMSO stock solutions. After drying the leaves were infested with N2 nymphs. The samples were assessed for mortality and growth inhibition in comparison to untreated samples 5 days after infestation.
# [4] = tested on: Plutella xylostella (Diamond Back Moth); test: Example B3: Activity against Plutella xylostella (diamond back moth), artificial diet; type: in vivo; details: 192 h, application rate 200 ppm, eggs on artificial diet, 8 days after infestation, read-out: effect in at least one of the two categories (mortality or growth inhibition)
# [5] = tested on: Frankliniella occidentalis (Western Flower Thrips); test: Example B8: Activity against Frankliniella occidentalis (western flower thrips); type: in vivo; details: foliar, 168 h, application rate 200 ppm, sprayed sunflower leaf discs, mixed ages, 7 days after infestation
# Description: Example B8: Activity Against Frankliniella occidentalis (Western Flower Thrips)
# Sunflower leaf discs were placed on agar in 24-well microtiter plates and sprayed with aqueous test solutions prepared from […] stock solutions. After drying the leaf discs were infested with a Frankliniella population of mixed ages. The samples were assessed for mortality 7 days after infestation.
# [6] = tested on: Diabrotica balteata (Corn Root Worm); test: Example B1: Activity against Diabrotica balteata (corn root worm), sprayed maize sprouts; type: in vivo; details: 96 h, application rate 200 ppm, L2 larvae on sprayed maize sprouts, 4 days after infestation, read-out: effect in at least one of the two categories (mortality or growth inhibition)
# Description: Example B1: Activity Against Diabrotica balteata (Corn Root Worm)
# Maize sprouts placed onto an agar layer in 24-well microtiter plates were treated with aqueous test solutions prepared from 10′000 ppm DMSO stock solutions by spraying. After drying, the plates were infested with L2 larvae (6 to 10 per well). The samples were assessed for mortality and growth inhibition in comparison to untreated samples 4 days after infestation.
# [7] = tested on: Tetranychus urticae (Two-Spotted Spider Mite); test: Example B9: Activity against Tetranychus urticae (two-spotted spider mite); type: in vivo; details: foliar, 192 h, read-out: mortality on mixed population (mobile stages)
# Description: Example B9: Activity Against Tetranychus urticae (Two-Spotted Spider Mite)
# Bean leaf discs on agar in 24-well microtiter plates were sprayed with aqueous test solutions prepared from 10′000 ppm DMSO stock solutions. After drying the leaf discs were infested with a mite population of mixed ages. The samples were assessed for mortality on mixed population (mobile stages) 8 days after infestation.
smiles,measurement,setting,value
"CCS(=O)(=O)c1ccc(C2CC2)nc1-c1cc2cnn(CC(F)(F)C(F)(F)F)c2cn1 [Compound P26, 5-(6-cyclopropyl-3-ethylsulfonyl-2-pyridyl)-1-(2,2,3,3,3,- pentafluoropropyl) pyrazolo[3,4-c]pyridine]","percent control (mortality, anti-feedant effect or growth inhibition) at 200 ppm",[1],≥ 80%
same,mortality at 200 ppm,[2],≥ 80%
same,percent effect (mortality or growth inhibition) at 200 ppm,[3],≥ 80%
same,percent effect (mortality or growth inhibition) at 200 ppm,[4],≥ 80%
same,mortality at 200 ppm,[5],≥ 80%
same,percent effect (mortality or growth inhibition) at 200 ppm,[6],≥ 80%
same,mortality at 200 ppm,[7],≥ 80%
"CCSc1cc(C(C)(C)C#N)c[n+]([O-])c1-c1cc2ccn(CC(F)(F)C(F)(F)F)c2cn1 [PN6, 2-[5-ethylsulfanyl-1-oxido-6-[1-(2,2,3,3,3-pentafluoropropyl)pyrrolo[2,3-c]pyridin-5-yl]pyridin-1-ium-3-yl]-2-methyl-propanenitrile]",mortality at 200 ppm,"[7]; application rate 200 ppm, sprayed bean leaf discs, 8 days after infestation",≥ 80%
"CCS(=O)(=O)c1ccc(N(C)C(=O)NC)nc1-c1cc2ccn(CC(F)(F)C(F)(F)F)c2cn1 [Compound P13, 1-[5-ethylsulfonyl-6-[1-(2,2,3,3,3-pentafluoropropyl)pyrrolo[2,3-c]pyridin-5-yl]-2-pyridyl]-1,3-dimethyl-urea]",melting point,,214 to 217 °C
